PMC11439681, “The identification of potent dual-target monopolar spindle 1 (MPS1) and histone deacetylase 8 (HDAC8) inhibitors through pharmacophore modeling, molecular docking, molecular dynamics simulations, and biological evaluation” (Frontiers in Pharmacology, 2024)

What was measured:
HepG2 liver cancer cells = assay: MTT cytotoxicity assay, HepG2; format: cell-based; details: Homo sapiens, 72 h cell treatment
Protocol: (§1) The cells (5 × 10^4 cells/well) were incubated overnight in 96-well plates. A series of solutions containing varying concentrations of inhibitors were added and incubated at 37°C for a period of 72 h. Subsequently, the culture medium was removed, followed by a subsequent incubation of the cells with a 5 mg/mL MTT stock solution for 4 h. After centrifugation, the precipitate was solubilized in DMSO and gently shaken for 15 min. Finally, the absorbance measurement at 570 nm was completed using a microplate reader. Data analysis was performed using GraphPad Prism 6.0 software.

HDAC8 = biological target: T1, HDAC8 (Homo sapiens, UniProt Q9BY41); assay: In vitro HDAC8 inhibitory assay; format: biochemical
T1 construct: purchased Abcam
T1 sequence (Q9BY41 1-377): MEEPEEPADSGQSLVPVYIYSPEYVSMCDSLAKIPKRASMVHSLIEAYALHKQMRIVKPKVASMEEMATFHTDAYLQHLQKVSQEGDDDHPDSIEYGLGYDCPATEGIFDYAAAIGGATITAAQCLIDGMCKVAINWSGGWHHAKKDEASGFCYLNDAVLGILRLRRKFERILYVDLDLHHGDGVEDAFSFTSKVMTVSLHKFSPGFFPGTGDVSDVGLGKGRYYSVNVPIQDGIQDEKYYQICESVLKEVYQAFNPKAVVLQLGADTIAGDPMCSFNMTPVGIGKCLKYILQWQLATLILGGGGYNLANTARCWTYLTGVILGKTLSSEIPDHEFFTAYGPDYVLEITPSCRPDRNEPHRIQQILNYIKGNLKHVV
Protocol: Inhibition of HDAC8 was determined in 96-well plates. […] The assessment of fluorescence intensity was executed at 390 nm and 460 nm via a microplate reader.

[1] = In vivo pharmacokinetic study; details: mouse, plasma, ip, BALB/c mice, i.p., 5 mg/kg
Protocol: MPH-5 was administered intraperitoneally to BALB/c mice at a dose of 5 mg/kg. The blood samples (0.25 mL) were collected at 0.25, 0.5, 1, 2, 4, 8, 16 and 24 h after dosing and centrifuged to obtain the plasma fraction. Plasma samples (50 μL) were transferred into a 96-well plate, followed by the addition of an internal standard solution of methanol/acetonitrile (1:1, v/v) (200 μL). After vortexing for 5 min, the mixture was centrifuged (12,000 rpm for 5 min) to obtain the supernatant (60 μL). A liquid chromatography-tandem mass spectrometry (LC-MS/MS) system was used for the pharmacokinetic study. Data were processed using Phoenix software.

[2] = tested on: drug-resistant liver cancer cells (R-HepG2); assay: MTT cytotoxicity assay, R-HepG2; format: cell-based; details: Homo sapiens, 72 h cell treatment
Protocol: as §1

L02 = assay: MTT cytotoxicity assay, L02 normal cells; format: cell-based; details: Homo sapiens, 72 h cell treatment
Protocol: as §1

Ace-K62 of PKM2 = assay: Gene expression analysis of Ace-K62 of PKM2 in HepG2 cells; format: cell-based, human; details: 20 h, 0.25, 1 and 5 μM
Protocol: (§2) Total RNA was extracted after the indicated treatments using the RNeasy Mini Kit (cat. no. 74106; QIAGEN, Hilden, Germany) following the manufacturer’s protocol. The concentration of RNA was measured on a plate reader, and then the extracted RNA was converted to cDNA using a High-Capacity RNA-to-cDNA kit from Applied Biosystems (Thermo Fisher Scientific, Inc.). Quantitative real-time polymerase chain reaction was performed in triplicate in a 96-well optical PCR plate using a QuantStudio Real-Time PCR System. Gene expression levels were evaluated using the comparative CT method. Graphical representations of the data were generated by GraphPad Prism 8.
(§3) Previous studies indicate that MPS1 inhibitor exerts its antitumor effects by downregulating the levels of phosphorylated histone H3 ([Naud et al., 2013]), while HDAC8 inhibitor achieves its antitumor activity by upregulating lysine residue 62 acetylation (Ace-K62) levels of pyruvate kinase M2 (PKM2) ([Zhang et al., 2020]). The gene expression of P-histone H3 and Ace-K62 was detected in HepG2 cells with the treatment of MPH-5 for 20 h (at the concentration of 0, 0.25, 1, and 5 μM, respectively). […] As the concentration of MPH-5 increases, the inhibitory effect on P-histone H3 and the promotional effect on Ace-K62 become more pronounced.

Huh-1 = assay: MTT cytotoxicity assay, Huh-1; format: cell-based; details: Homo sapiens, 72 h cell treatment
Protocol: as §1

Li-7 = assay: MTT cytotoxicity assay, Li-7; format: cell-based; details: Homo sapiens, 72 h cell treatment
Protocol: as §1

P-histone H3 = assay: Gene expression analysis of P-histone H3 in HepG2 cells; format: cell-based, human; details: 20 h, 0.25, 1 and 5 μM
Protocol: as §2, §3

MCF10A = assay: MTT cytotoxicity assay, MCF10A normal cells; format: cell-based; details: Homo sapiens, MCF-10A, 72 h cell treatment
Protocol: as §1

BEAS-2B = assay: MTT cytotoxicity assay, BEAS-2B normal cells; format: cell-based; details: Homo sapiens, 72 h cell treatment
Protocol: as §1

## Cn1cc(-c2cc3cnc(Nc4ccc(-c5cncn5/C=C/C(=O)NO)cc4Cl)cc3n2C(=O)OC(C)(C)C)cn1 [MPH-5]
HepG2 liver cancer cells
  IC50: 0.19 µM
HDAC8; 90 min at 37°C
  IC50: 0.00607 ± 0.00037 µM
HDAC8; vs belinostat
  HDAC8 IC50 of MPH-5 relative to belinostat: about 4 fold
[1]; read-out: AUC (h·nmol/L), area under the drug-time curve
  AUC: 13800 nmol·h/L
[1]; read-out: Cmax (nmol/L), maximum plasma concentration
  Cmax: 2920 nmol/L
[1]; read-out: F (%), bioavailability
  bioavailability: 85%
[1]; read-out: T1/2 (h), elimination half-life (converted)
  half-life: 3.46 h
[2]
  IC50: 0.27 µM
L02
  IC50: > 10 µM
Ace-K62 of PKM2
  K62 acetylation levels (Ace-K62 of PKM2): dose-dependent regulation
Huh-1
  IC50: 0.32 µM
Li-7
  IC50: 0.64 µM
P-histone H3
  phosphorylated histone H3 levels: dose-dependent regulation
MCF10A
  IC50: > 10 µM
BEAS-2B
  IC50: > 10 µM
